In the NIST ThermoML archive (doi:10.1021/je900733j):

What was measured:
[1] = xn = mol fraction of the nth substance listed; settings: 101 kPa, Liquid
[2] = 101 kPa, Liquid

CCCCn1cc[n+](C)c1.[Cl-] [1-butyl-3-methylimidazolium chloride] + CO
mass density [kg/m3], [1]
Settings | x1 = 0.0101 | x1 = 0.0506 | x1 = 0.1 | x1 = 0.1665 | x1 = 0.1951 | x1 = 0.2398 | x1 = 0.2991 | x1 = 0.3771 | x1 = 0.482
293.15 K | 805.87 | 852.64 | 894.1 | 935.48 | 949.82 | 968.61 | 989.02 | 1010.45 | 1031.45
298.15 K | 801.3 | 848.46 | 890.18 | 931.83 | 946.25 | 965.16 | 985.68 | 1007.23 | 1028.33
303.15 K | 796.71 | 844.24 | 886.26 | 928.17 | 942.69 | 961.71 | 982.33 | 1004.01 | 1025.22
308.15 K | 792.11 | 840.01 | 882.35 | 924.53 | 939.14 | 958.26 | 979.01 | 1000.8 | 1022.12
313.15 K | 787.49 | 835.76 | 878.44 | 920.9 | 935.6 | 954.83 | 975.69 | 997.6 | 1019.03
318.15 K | 782.83 | 831.56 | 874.52 | 917.27 | 932.06 | 951.4 | 972.38 | 994.41 | 1015.96

CCCCn1cc[n+](C)c1.[Cl-] [1-butyl-3-methylimidazolium chloride] + CC#N
mass density [kg/m3], [1]
Settings | x1 = 0.0303 | x1 = 0.0797 | x1 = 0.1308 | x1 = 0.1806 | x1 = 0.235 | x1 = 0.2914 | x1 = 0.3717 | x1 = 0.439
293.15 K | 815.47 | 859.07 | 894.46 | 922.76 | 948.31 | 970.09 | 995.09 | 1012.49
298.15 K | 810.4 | 854.38 | 890.07 | 918.62 | 944.36 | 966.32 | 991.52 | 1009.08
303.15 K | 805.29 | 849.67 | 885.68 | 914.46 | 940.39 | 962.55 | 987.95 | 1005.66
308.15 K | 800.18 | 844.95 | 881.27 | 910.3 | 936.47 | 958.78 | 984.38 | 1002.25
313.15 K | 795.05 | 840.21 | 876.86 | 906.14 | 932.51 | 955.02 | 980.83 | 998.86
318.15 K | 789.88 | 835.48 | 872.45 | 901.98 | 928.57 | 951.26 | 977.28 | 995.46

CC#N [acetonitrile]
[2]
Settings | mass density [kg/m3]
293.15 K | 782.04
298.15 K | 776.64
303.15 K | 771.21
308.15 K | 765.75
313.15 K | 760.25
318.15 K | 754.73
